Among the data in PubChem BioAssay (NCI) are GI50 and TGI values, retold here.

SMILES strings stand for the structures.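 Each compound was tested at five concentrations against cells in 96-well plates for 48 hours. Here, GI50 denotes the concentration required for 50% inhibition of growth. Definition used: TGI = concentration required for complete inhibition of growth.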

Among the test systems are PC-3 prostate; BT-549 breast; ACHN renal; TK-10 renal; HOP-92 NSCLC; SF-539 CNS; K-562 leukemia; SNB-19 CNS; SF-295 CNS; HL-60(TB) leukemia.
Common to all, as to assay: NCI tumour cell line growth inhibition, 48 h

In the case of `C=C(C)[C@@H]1CCC[C@]2(C(=O)O)CC[C@]3(C)[C@@H](CC[C@@H]4[C@@]5(C)C/C(=C/c6ccncc6)C(=O)C(C)(C)[C@@H]5CC[C@]43C)[C@@H]12`, the GI50 is 2.39 µM with PC-3 prostate; 2.1 µM in the assay on BT-549 breast; 2.84 µM in the assay with ACHN renal; 3.6 µM with TK-10 renal; 1.71 µM in the assay with HOP-92 NSCLC; 2.7 µM in the assay on SF-539 CNS. The figures for the GI50 in the assay with K-562 leukemia, with SNB-19 CNS and in the assay on SF-295 CNS were 3.3 µM, 3.69 µM and 2.04 µM, respectively. Further, the TGI with PC-3 prostate turned out to be 20.3 µM; in the assay on BT-549 breast, 6.21 µM; in the assay on ACHN renal, 11 µM; in the assay with TK-10 renal it was 29.4 µM; in the assay with HOP-92 NSCLC, 7.19 µM; in the assay with SF-539 CNS it was 11.9 µM. Also, the TGI with K-562 leukemia was over 100 µM; with SNB-19 CNS it was 17.1 µM; with SF-295 CNS, 6.63 µM.
Take `CN1c2ccccc2C(=O)Nc2cnc(Cl)nc21`: the TGI with PC-3 prostate, in the assay on ACHN renal, in the assay on TK-10 renal, in the assay on HOP-92 NSCLC, with SF-539 CNS and in the assay on K-562 leukemia was over 100 µM throughout. In addition, the TGI in the assay on HL-60(TB) leukemia, with SNB-19 CNS and in the assay on SF-295 CNS was over 100 µM in each case.
On to `O=C1CC2Sc3ccccc3N=C2N1c1ccc(Cl)cc1Cl` (stereo unspecified), for which the TGI with ACHN renal is over 100 µM; with TK-10 renal it was over 100 µM; in the assay on HOP-92 NSCLC, over 100 µM; in the assay on HL-60(TB) leukemia it was 72.1 µM; in the assay with SNB-19 CNS, over 100 µM; with SF-295 CNS, over 100 µM.
Take `N#CC(=C=[N-])[n+]1ccc(Cl)cc1`: the TGI with TK-10 renal turned out to be 45.8 µM; with HOP-92 NSCLC, 29.8 µM; in the assay on SF-539 CNS it was 43.2 µM; in the assay with K-562 leukemia it was 11.3 µM; in the assay with HL-60(TB) leukemia it was 20.4 µM; in the assay on SNB-19 CNS, 94.5 µM. In the assay with SF-295 CNS, this molecule had a TGI of 38.9 µM.
On to `COc1ccc(N=C2NN=C(c3c[nH]c4ccccc34)CS2)cc1OC`, for which the TGI was over 45.8 µM with PC-3 prostate; over 42.5 µM with BT-549 breast; over 100 µM in the assay on ACHN renal; over 100 µM in the assay with TK-10 renal; over 58.1 µM in the assay with HOP-92 NSCLC; over 100 µM in the assay with SF-539 CNS. For the same molecule, the TGI in the assay with K-562 leukemia, with SNB-19 CNS and in the assay on SF-295 CNS was over 100 µM in each case. The GI50 with BT-549 breast was 4.2 µM; in the assay on ACHN renal it was 17.3 µM; with TK-10 renal, 38 µM; in the assay on HOP-92 NSCLC, 5.81 µM; in the assay on SF-539 CNS it was 8.25 µM; in the assay on K-562 leukemia it was 7.67 µM. Also, the figures for the GI50 in the assay on SNB-19 CNS and with SF-295 CNS were 10.9 µM and 4.29 µM, respectively.
Regarding `OCCCCC#Cc1ccccc1C#Cc1cnccn1`, the GI50 in the assay on PC-3 prostate is 34.6 µM; with BT-549 breast, 17.4 µM; in the assay with ACHN renal, 38.8 µM; in the assay with TK-10 renal it was 47.7 µM; with HOP-92 NSCLC, 19.5 µM; in the assay with SF-539 CNS, 53.8 µM. Besides, the values for the GI50 in the assay on K-562 leukemia, with SNB-19 CNS and in the assay on SF-295 CNS were 29.5 µM, 73.4 µM and 28.1 µM, respectively. The TGI with PC-3 prostate was over 100 µM; in the assay on BT-549 breast, 55.2 µM; in the assay on ACHN renal it was over 100 µM; with TK-10 renal, over 100 µM; with HOP-92 NSCLC, 88.4 µM; in the assay with SF-539 CNS, over 100 µM. The TGI is over 100 µM in the assay on K-562 leukemia, over 100 µM in the assay on SNB-19 CNS and 91.6 µM with SF-295 CNS.
For the molecule `Cc1cccc(N2C(=O)/C(=C/c3ccc(N(CCC#N)CCC#N)cc3C)N=C2c2cc([N+](=O)[O-])ccc2Cl)c1`, the TGI in the assay on ACHN renal, with TK-10 renal, with HOP-92 NSCLC, in the assay with SF-539 CNS, in the assay on K-562 leukemia and in the assay with HL-60(TB) leukemia was over 100 µM throughout. For the same molecule, the TGI with SNB-19 CNS and in the assay with SF-295 CNS was over 100 µM each time.
Turning to `C/C(=N/Nc1ccc([N+](=O)[O-])cc1[N+](=O)[O-])C(CC(C(=O)Nc1ccccc1C)/C(C)=N\Nc1ccc([N+](=O)[O-])cc1[N+](=O)[O-])C(=O)Nc1ccccc1C` (stereo unspecified), the TGI was over 49.6 µM in the assay on ACHN renal; 60.1 µM with TK-10 renal; 15.5 µM in the assay on HOP-92 NSCLC; 25.8 µM in the assay with SF-539 CNS; over 100 µM with K-562 leukemia; over 100 µM with HL-60(TB) leukemia. Besides, the TGI was 32 µM in the assay with SNB-19 CNS and 33.9 µM with SF-295 CNS.
On to `CN1C(=O)C23CC4=CC=CC(O)C4N2C(=O)C1(CO)SS3` (stereo unspecified), for which the TGI in the assay with PC-3 prostate amounted to 0.387 µM; with BT-549 breast it was 0.742 µM; with ACHN renal it was 0.334 µM; in the assay with TK-10 renal, 0.34 µM; with HOP-92 NSCLC, 0.41 µM; with SF-539 CNS, 0.17 µM. Also, the TGI came out at 0.55 µM in the assay on SNB-19 CNS and 0.389 µM in the assay with SF-295 CNS.
For `Cc1ns/c(=N\C(=S)N(C)C)n1C`, the TGI in the assay on ACHN renal, in the assay with TK-10 renal, with HOP-92 NSCLC, in the assay with SF-539 CNS, with K-562 leukemia and in the assay on HL-60(TB) leukemia was over 100 µM each time. In addition, the TGI in the assay on SNB-19 CNS and with SF-295 CNS was over 100 µM throughout.
`CCN1CC2(C)CC[C@@H](OC)C34[C@@H]2[C@H](OC(C)=O)C2(OCO[C@@]25C[C@H](OC)C2C[C@]3(O)[C@@H]5[C@H]2O)[C@H]14`: the TGI with TK-10 renal, in the assay on HOP-92 NSCLC, in the assay with SF-539 CNS, with HL-60(TB) leukemia, with SNB-19 CNS and in the assay on SF-295 CNS was over 100 µM throughout.
For `COc1ccccc1NC(=O)C(=O)C1C(=O)Nc2ccccc2S1=O` (stereo unspecified), the TGI with ACHN renal, in the assay with TK-10 renal, with SF-539 CNS, in the assay with K-562 leukemia, in the assay with HL-60(TB) leukemia and in the assay on SNB-19 CNS was over 100 µM throughout. The molecule further displayed a TGI in the assay on SF-295 CNS of over 100 µM.
On to `CC(C)=C1CCC(CN2CCCC2)C1=O` (stereo unspecified), for which the TGI is 32.7 µM in the assay on ACHN renal; over 100 µM in the assay with TK-10 renal; 58.5 µM in the assay with HOP-92 NSCLC; over 100 µM with SF-539 CNS; over 100 µM in the assay on K-562 leukemia; 50.8 µM in the assay with HL-60(TB) leukemia. In addition, the TGI in the assay on SNB-19 CNS and in the assay on SF-295 CNS was over 100 µM each time.
For the molecule `COc1cc(CC(=O)c2ccc3c(c2)OCO3)cc(OC)c1OC`, the TGI in the assay with ACHN renal, in the assay on TK-10 renal, in the assay on HOP-92 NSCLC, in the assay with SF-539 CNS, in the assay on K-562 leukemia and in the assay with HL-60(TB) leukemia was over 100 µM in each case. The TGI in the assay with SNB-19 CNS and with SF-295 CNS was over 100 µM in each case.
